Test results from ChEMBL document CHEMBL1131777, “Analogs of 4-(3-bromo-8-methyl-10-methoxy-6,11-dihydro-5H-benzo[5,6]-cyclo hepta[1,2-b]pyridin-11-yl)-1-(4-pyridinylacetyl)piperidine N-oxide as inhibitors of farnesyl protein transferase” (Bioorg Med Chem Lett, 1999).

How the values were obtained:
[1] = biological target: T1, Protein farnesyltransferase (Homo sapiens, UniProt P49354+P49356); test: In vitro inhibition of human Farnesyltransferase; assay type: protein-complex assay
[2] = biological target: T1, Protein farnesyltransferase; test: Percent inhibition of human Farnesyltransferase; assay type: protein-complex assay; conditions: concentration not given here

| Compound | IC50 [1] [nM] | inhibition [2] [%] |
| --- | --- | --- |
| COc1cc(C)cc2c1C(C1CCN(C(=O)Cc3cc[n+]([O-])cc3)CC1)c1ncc(C)cc1CC2 (configuration not stated) | 34 | – |
| COc1cc(C)cc2c1[C@@H](C1CCN(C(=O)Cc3cc[n+]([O-])cc3)CC1)c1ncc(Br)cc1CC2 | 3.6 | – |
| COc1cc(C)cc2c1C(C1CCN(C(=O)Cc3cc[n+]([O-])cc3)CC1)c1ncc(C3CC3)cc1CC2 (configuration not stated) | 200 | – |
| COc1cc(C)cc2c1C(C1CCN(C(=O)Cc3cc[n+]([O-])cc3)CC1)c1ncccc1CC2 (configuration not stated) | 140 | – |
| COc1cc(C)cc2c1C(C1CCN(C(=O)Cc3cc[n+]([O-])cc3)CC1)c1ncc(C(C)(C)O)cc1CC2 (configuration not stated) | – | 26 |
| C=Cc1cnc2c(c1)CCc1cc(C)cc(OC)c1C2C1CCN(C(=O)Cc2cc[n+]([O-])cc2)CC1 (configuration not stated) | 59 | – |
| CCc1cnc2c(c1)CCc1cc(C)cc(OC)c1C2C1CCN(C(=O)Cc2cc[n+]([O-])cc2)CC1 (configuration not stated) | 74 | – |
